Laboratory results taken from patent US20230398130A1, “METHODS AND COMPOSITIONS FOR DIFFERENTIATING STEM CELLS” (Massachusetts Institute of Technology, priority 2020, published 2023).

Assays:
ISC-enriched organoids [1] = assay: Primary screen, 384-well 2.5-D organoid differentiation (ENR+CD, 6 days): carbachol-induced lysozyme secretion (LYZ.S); type: cell-based, murine; conditions: for Dose.FC.LYZ.S / Z.LYZ.S / SSMD.LYZ.S / Dose.FC.LYZ.S (log 2 fold change): primary screen; for Dose.FC.LYZ.S: FC vs plate median; for Z.LYZ.S: standard z score; for SSMD.LYZ.S: strictly standardized mean difference; for Dose.FC.LYZ.S (log 2 fold change, carbachol-induced lysozyme secretion) / Dose.FC.LYZ.S (log 2 fold change): vs plate median
Description: (§1) High-throughput screening.

ISC-enriched organoids [2] = assay: Primary screen, 384-well 2.5-D organoid differentiation (ENR+CD, 6 days, Target Selective Inhibitor Library, vs whole-plate median): ATP (CellTiter-Glo 3D, CTG); conditions: for Dose.FC.CTG: FC vs plate median; for Z.CTG: standard z score; for SSMD.CTG: strictly standardized mean difference; for Dose.FC.CTG (log 2 fold change, ATP) / Dose.FC.CTG (log 2 fold change): vs plate median
ISC-enriched organoids [3] = assay: Primary screen, 384-well 2.5-D organoid differentiation (ENR+CD, 6 days): basal lysozyme secretion (LYZ.NS); type: cell-based, murine; conditions: for Dose.FC.LYZ.NS: FC vs plate median; for Z.LYZ.NS: standard z score; for SSMD.LYZ.NS: strictly standardized mean difference; for Dose.FC.LYZ.NS (log 2 fold change, basal lysozyme secretion) / Dose.FC.LYZ.NS (log 2 fold change): vs plate median
Description: as §1

[4] = 1st of the 4 dose lines of the treatment (dose not given)
[5] = 2nd of the 4 dose lines of the treatment (dose not given)
[6] = 3rd of the 4 dose lines of the treatment (dose not given)
[7] = 4th of the 4 dose lines of the treatment (dose not given)
[8] = primary screen, 1st of the 4 dose lines of the treatment (dose not given)
[9] = primary screen, 2nd of the 4 dose lines of the treatment (dose not given)
[10] = primary screen, 3rd of the 4 dose lines of the treatment (dose not given)
[11] = primary screen, 4th of the 4 dose lines of the treatment (dose not given)

SMILES: COc1cc(-c2ncn(/C=C\C(=O)OC(C)C)n2)cc(C(F)(F)F)c1 [KPT-185]
- Dose.FC.LYZ.S (ISC-enriched organoids [1]; Dose 0.08 uM): −0.015 log 2 fold change
- Dose.FC.LYZ.S (ISC-enriched organoids [1]; Dose 0.40 uM): 0.220 log 2 fold change
- Dose.FC.LYZ.S (ISC-enriched organoids [1]; Dose 2.00 uM): −0.322 log 2 fold change
- Dose.FC.LYZ.S (ISC-enriched organoids [1]; Dose 10.00 uM): −0.153 log 2 fold change
- Z.LYZ.S (ISC-enriched organoids [1]; [4]): −0.096
- Z.LYZ.S (ISC-enriched organoids [1]; [5]): 1.420
- Z.LYZ.S (ISC-enriched organoids [1]; [6]): −2.085
- Z.LYZ.S (ISC-enriched organoids [1]; [7]): −0.989
- SSMD.LYZ.S (ISC-enriched organoids [1]; [4]): −0.092
- SSMD.LYZ.S (ISC-enriched organoids [1]; [5]): 0.978
- SSMD.LYZ.S (ISC-enriched organoids [1]; [6]): −1.455
- SSMD.LYZ.S (ISC-enriched organoids [1]; [7]): −0.431
- Dose.FC.CTG (ISC-enriched organoids [2]; Dose 0.08 uM, primary screen): 0.116 log 2 fold change
- Z.CTG (ISC-enriched organoids [2]; Dose 0.08 uM, primary screen): 0.277
- Dose.FC.CTG (ISC-enriched organoids [2]; Dose 0.40 uM, primary screen): 0.104 log 2 fold change
- Z.CTG (ISC-enriched organoids [2]; Dose 0.40 uM, primary screen): 0.248
- Dose.FC.CTG (ISC-enriched organoids [2]; Dose 2.00 uM, primary screen): −0.995 log 2 fold change
- Z.CTG (ISC-enriched organoids [2]; Dose 2.00 uM, primary screen): −2.377
- Dose.FC.CTG (ISC-enriched organoids [2]; Dose 10.00 uM, primary screen): −0.855 log 2 fold change
- Z.CTG (ISC-enriched organoids [2]; Dose 10.00 uM, primary screen): −2.041
- SSMD.CTG (ISC-enriched organoids [2]; [8]): 0.296
- SSMD.CTG (ISC-enriched organoids [2]; [9]): 0.270
- SSMD.CTG (ISC-enriched organoids [2]; [10]): −1.033
- SSMD.CTG (ISC-enriched organoids [2]; [11]): −0.723
- Dose.FC.LYZ.NS (ISC-enriched organoids [3]; Dose 0.08 uM, primary screen): −0.006 log 2 fold change
- Z.LYZ.NS (ISC-enriched organoids [3]; Dose 0.08 uM, primary screen): −0.049
- Dose.FC.LYZ.NS (ISC-enriched organoids [3]; Dose 0.40 uM, primary screen): 0.097 log 2 fold change
- Z.LYZ.NS (ISC-enriched organoids [3]; Dose 0.40 uM, primary screen): 0.846
- Dose.FC.LYZ.NS (ISC-enriched organoids [3]; Dose 2.00 uM, primary screen): −0.209 log 2 fold change
- Z.LYZ.NS (ISC-enriched organoids [3]; Dose 2.00 uM, primary screen): −1.820
- Dose.FC.LYZ.NS (ISC-enriched organoids [3]; Dose 10.00 uM, primary screen): −0.085 log 2 fold change
- Z.LYZ.NS (ISC-enriched organoids [3]; Dose 10.00 uM, primary screen): −0.744
- SSMD.LYZ.NS (ISC-enriched organoids [3]; [8]): −0.049
- SSMD.LYZ.NS (ISC-enriched organoids [3]; [9]): 0.872
- SSMD.LYZ.NS (ISC-enriched organoids [3]; [10]): −1.718
- SSMD.LYZ.NS (ISC-enriched organoids [3]; [11]): −0.298

SMILES: CC(C)(C)c1cc(/C=C(\C#N)C(N)=S)cc(C(C)(C)C)c1O [Tyrphostin AG 879]
- Dose.FC.LYZ.S (log 2 fold change, carbachol-induced lysozyme secretion) (ISC-enriched organoids [1]; dose 0.08 uM): −0.083
- Dose.FC.LYZ.S (log 2 fold change, carbachol-induced lysozyme secretion) (ISC-enriched organoids [1]; dose 0.40 uM): −0.084
- Dose.FC.LYZ.S (log 2 fold change, carbachol-induced lysozyme secretion) (ISC-enriched organoids [1]; dose 2.00 uM): −0.051
- Dose.FC.LYZ.S (log 2 fold change, carbachol-induced lysozyme secretion) (ISC-enriched organoids [1]; dose 10.00 uM): −0.123
- Z.CTG (standard z score) (ISC-enriched organoids [2]; dose 0.08 uM): −0.828
- Dose.FC.CTG (log 2 fold change, ATP) (ISC-enriched organoids [2]; dose 0.08 uM): −0.347
- Z.CTG (standard z score) (ISC-enriched organoids [2]; dose 0.40 uM): −0.569
- Dose.FC.CTG (log 2 fold change, ATP) (ISC-enriched organoids [2]; dose 0.40 uM): −0.238
- Z.CTG (standard z score) (ISC-enriched organoids [2]; dose 2.00 uM): −0.554
- Dose.FC.CTG (log 2 fold change, ATP) (ISC-enriched organoids [2]; dose 2.00 uM): −0.232
- Z.CTG (standard z score) (ISC-enriched organoids [2]; dose 10.00 uM): −0.879
- Dose.FC.CTG (log 2 fold change, ATP) (ISC-enriched organoids [2]; dose 10.00 uM): −0.368
- Z.LYZ.NS (standard z score) (ISC-enriched organoids [3]; dose 0.08 uM): 0.088
- Dose.FC.LYZ.NS (log 2 fold change, basal lysozyme secretion) (ISC-enriched organoids [3]; dose 0.08 uM): 0.010
- Z.LYZ.NS (standard z score) (ISC-enriched organoids [3]; dose 0.40 uM): −0.680
- Dose.FC.LYZ.NS (log 2 fold change, basal lysozyme secretion) (ISC-enriched organoids [3]; dose 0.40 uM): −0.078
- Z.LYZ.NS (standard z score) (ISC-enriched organoids [3]; dose 2.00 uM): −0.698
- Dose.FC.LYZ.NS (log 2 fold change, basal lysozyme secretion) (ISC-enriched organoids [3]; dose 2.00 uM): −0.080
- Z.LYZ.NS (standard z score) (ISC-enriched organoids [3]; dose 10.00 uM): −0.960
- Dose.FC.LYZ.NS (log 2 fold change, basal lysozyme secretion) (ISC-enriched organoids [3]; dose 10.00 uM): −0.110

SMILES: O=C1NC(=O)C(c2ccccc2[N+](=O)[O-])=C1Nc1ccc(O)c(Cl)c1 [SB415286]
- Dose.FC.LYZ.S (log 2 fold change) (ISC-enriched organoids [1]; Dose 0.08 uM): 0.159
- Dose.FC.LYZ.S (log 2 fold change) (ISC-enriched organoids [1]; Dose 0.40 uM): −0.008
- Dose.FC.LYZ.S (log 2 fold change) (ISC-enriched organoids [1]; Dose 2.00 uM): −0.053
- Dose.FC.LYZ.S (log 2 fold change) (ISC-enriched organoids [1]; Dose 10.00 uM): −0.042
- Z.CTG (standard z score) (ISC-enriched organoids [2]; Dose 0.08 uM, primary screen): 0.527
- Dose.FC.CTG (log 2 fold change) (ISC-enriched organoids [2]; Dose 0.08 uM, primary screen): 0.221
- Z.CTG (standard z score) (ISC-enriched organoids [2]; Dose 0.40 uM, primary screen): −0.011
- Dose.FC.CTG (log 2 fold change) (ISC-enriched organoids [2]; Dose 0.40 uM, primary screen): −0.004
- Z.CTG (standard z score) (ISC-enriched organoids [2]; Dose 2.00 uM, primary screen): −0.231
- Dose.FC.CTG (log 2 fold change) (ISC-enriched organoids [2]; Dose 2.00 uM, primary screen): −0.097
- Z.CTG (standard z score) (ISC-enriched organoids [2]; Dose 10.00 uM, primary screen): 0.293
- Dose.FC.CTG (log 2 fold change) (ISC-enriched organoids [2]; Dose 10.00 uM, primary screen): 0.123
- Z.LYZ.NS (standard z score) (ISC-enriched organoids [3]; Dose 0.08 uM, primary screen): 1.262
- Dose.FC.LYZ.NS (log 2 fold change) (ISC-enriched organoids [3]; Dose 0.08 uM, primary screen): 0.145
- Z.LYZ.NS (standard z score) (ISC-enriched organoids [3]; Dose 0.40 uM, primary screen): 0.101
- Dose.FC.LYZ.NS (log 2 fold change) (ISC-enriched organoids [3]; Dose 0.40 uM, primary screen): 0.012
- Z.LYZ.NS (standard z score) (ISC-enriched organoids [3]; Dose 2.00 uM, primary screen): 1.024
- Dose.FC.LYZ.NS (log 2 fold change) (ISC-enriched organoids [3]; Dose 2.00 uM, primary screen): 0.118
- Z.LYZ.NS (standard z score) (ISC-enriched organoids [3]; Dose 10.00 uM, primary screen): −0.136
- Dose.FC.LYZ.NS (log 2 fold change) (ISC-enriched organoids [3]; Dose 10.00 uM, primary screen): −0.016
